In patent US20120198764A1, “METHOD FOR REDUCING PHYTOTOXICITY” (Ishihara Sangyo Kaisha, Ltd., priority 2009, published 2012):
Read-outs that look alike come from different tables or passages of the source.

Columns and labels:
Conditions in all cases: in vivo
[1] = test system: bentgrass (breed: pencross); assay: Test Example 1: pot test, TurfGreen BG applied 7 days before flazasulfuron
Description: 1/300,000 ha pots were prepared, as the present invention area, comparative area and non-treated area, soil was put into them, and bentgrass (breed: pencross) in sod state (state of mat) was planted thereon. With respect to the bentgrass in the present invention area, after the bentgrass root-took on soil, a spray liquid was prepared by diluting a colorant for turfgrass (tradename: TurfGreen BG (containing chlorinated copper phthalocyanine), manufactured by Nisso Green Co., Ltd.) with water to 50 times, and the bentgrass was subjected to foliar treatment with the spray liquid in an amount of about 2,000 L/ha by a small spray gun. […]
On 13th day after the treatment with flazasulfuron, the state of growth of bentgrass was visually observed and evaluated in accordance with growth inhibition rate (%)=0 (equivalent to the non-treated area) to 100 (complete kill), and thereby the results shown in Table 1 were obtained. […]

[2] = test system: bentgrass (breed: pencross); assay: Test Example 6: ground plot test, FULLGREEN S applied 1 day before or after flazasulfuron
Description: (§1) On 13th day after the treatment with flazasulfuron, the state of growth of bentgrass was visually observed and evaluated in accordance with growth inhibition rate (%)=0 (equivalent to the non-treated area) to 100 (complete kill), and thereby the results shown in Table 1 were obtained. Further, the test was carried out in duplicate.
(§2) Among bentgrass (breed: pencross) planted on ground in sod state in 0.5 m^2 (5.0×10^−5 ha, 1 m×0.5 m) of the present invention area A, the present invention area B, comparative area and non-treated area, the bentgrass in the present invention area A, the present invention area B and comparative area were subjected to foliar treatment with a spray liquid prepared by diluting a predetermined amount (corresponding to flazasulfuron: 6.25 g a.i./ha) of SHIBAGEN DF (tradename, the same as in Test Example 1) with water containing 0.02 wt % of Kusa-rino (tradename, the same as in Test Example 1) in an amount of about 2,000 L/ha by a small spray gun. […]
On 7th day after the treatment with flazasulfuron, the state of growth of bentgrass was evaluated in the same manner as in Test Example 1, and thereby the results shown in Table 6 were obtained. […]

[3] = test system: bentgrass (breed: pencross); assay: Test Example 7: pot test, copper phthalocyanine or Prussian Blue applied 1 day before flazasulfuron
Description: as §1
(§3) 1/1,000,000 ha pots were prepared, as the present invention area, comparative area and non-treated area, soil was put into them, and bentgrass (breed: pencross) in sod state was planted thereon. After the bentgrass root-took on soil, a spray liquid was prepared by diluting copper phthalocyanine or Prussian Blue with water to 1,000 times or 500 times, and the bentgrass in the present invention area was subjected to foliar treatment with the spray liquid in an amount of about 1,000 L/ha by a small spray gun. After 1 day, a spray liquid was prepared by diluting a predetermined amount (corresponding to flazasulfuron: 5 g a.i./ha) of SHIBAGEN DF (tradename, the same as in Test Example 1) with water containing 0.02 wt % of Kusa-rino (tradename, the same as in Test Example 1), and the bentgrass in the present invention area and comparative area were subjected to foliar treatment with the spray liquid in an amount of about 2,000 L/ha by a small spray gun.
On 8th day after the treatment with flazasulfuron, the state of growth of bentgrass was evaluated in the same manner as in Test Example 1, and thereby the results shown in Table7 were obtained. Further, the test was carried out in duplicate.

[4] = test system: bentgrass (breed: pencross); assay: Test Example 4: ground plot test, TurfGreen BG applied 7 days after flazasulfuron
Description: as §1
as §2, with “invention area,” for “invention area A, the present invention area B,”, “the bentgrasses” for “the bentgrass”, “area” for “area A, the present invention area B”, “a hand portable pump sprayer.” for “a small spray gun.”
Prior to the treatment with TurfGreen BG or on 7th day after the treatment with TurfGreen BG, the state of growth of bentgrass was evaluated in the same manner as in Test Example 1, and thereby the results shown in Table 4 were obtained. […]

[5] = test system: bentgrass (breed: pencross); assay: Test Example 3: ground plot test, TurfGreen BG applied 1 or 3 days before flazasulfuron
Description: as §1
as §2, with “planted” for “planted on ground”, “state on ground” for “state”, “m) in” for “m) of”, “a hand portable pump sprayer.” for “a small spray gun.”
On 14th day after the treatment with flazasulfuron, the state of growth of the bentgrass was evaluated in the same manner as in Test Example 1, and thereby the results shown in Table 3 were obtained. […]

[6] = test system: bentgrass (breed: pencross); assay: Test Example 2: pot test, TurfGreen BG applied 1 day after flazasulfuron
Description: as §1
as §3, with “With respect” for “After the bentgrass root-took on soil, a spray liquid was prepared by diluting copper phthalocyanine or Prussian Blue with water”, “to” for “to 1,000 times or 500 times, and”, “and comparative area, after” for “was subjected to foliar treatment with”, “bentgrass root-took on soil,” for “spray liquid in an amount of about 1,000 L/ha by a small spray gun. After 1 day,”, “gun. […]” for “gun.”
On 7th day after the treatment with TurfGreen BG, the state of growth of bentgrass was evaluated in the same manner as in Test Example 1, and thereby the results shown in Table 2 were obtained. […]

[7] = test system: bentgrass (breed: pencross); assay: Test Example 8: pot test, Prussian Blue applied 5 days after flazasulfuron
Description: as §1
as §3, with “soil,” for “soil, a spray liquid was prepared by diluting copper phthalocyanine or Prussian Blue with water to 1,000 times or 500 times, and the bentgrass in the present invention area was subjected to foliar treatment with the spray liquid in an amount of about 1,000 L/ha by a small spray gun. After 1 day,”, “gun. […]” for “gun.”
On 7th day after the treatment with Prussian Blue, the state of growth of bentgrass was evaluated in the same manner as in Test Example 1, and thereby the results shown in Table 8 were obtained. […]

[8] = test system: bentgrass (breed: pencross); assay: Test Example 5: pot test, colorants applied 1 day before flazasulfuron
Description: as §1
1/1,000,000 ha pots were prepared, as the present invention area, comparative area and non-treated area, soil was put into them, and bentgrass (breed: pencross) in sod state was planted thereon. After the bentgrass root-took on soil, a spray liquid was prepared by diluting a colorant for turfgrass (tradename: Green Way (pigment containing metal ions), manufactured by Otsuka Chemical Co., Ltd.), (tradename: Green Way Sayaka (pigment containing metal ions), manufactured by Otsuka Chemical Co., Ltd.) or (tradename: Clear Green L (copper phthalocyanine), manufactured by Ohkawaya Co., Ltd.) with water to 50 times, and the bentgrass in the present invention area was subjected to foliar treatment with the spray liquid in an amount of about 2,000 L/ha by a small spray gun. […]
On 7th day after the treatment with flazasulfuron, the state of growth of bentgrass was evaluated in the same manner as in Test Example 1, and thereby the results shown in Table 5 were obtained. […]

[9] = test system: bentgrass (breed: pencross)
Description: as §1
as §3, with “Pigment Green 7” for “copper phthalocyanine or Prussian Blue”, “125” for “1,000 times or 500”, “10” for “5”
On 7th day after the treatment with flazasulfuron, the state of growth of bentgrass was evaluated in the same manner as in Test Example 1, and thereby the results shown in Table 9 were obtained. Further, the test was carried out in triplicate.

Compound | State of growth of bentgrass, Growth inhibition rate (%) [1] [%] | State of growth of bentgrass, Growth inhibition rate (%) [2] [%] | State of growth of bentgrass, Growth inhibition rate (%) [3] [%] | State of growth of bentgrass, Growth inhibition rate (%) [4] [%] | State of growth of bentgrass, Growth inhibition rate (%) [5] [%] | State of growth of bentgrass, Growth inhibition rate (%) [6] [%] | State of growth of bentgrass, Growth inhibition rate (%) [7] [%] | State of growth of bentgrass, Growth inhibition rate (%) [8] [%] | State of growth of bentgrass, Growth inhibition rate (%) [9] [%] | phytotoxicity due to flazasulfuron, compared with comparative area [3] | phytotoxicity due to flazasulfuron, compared with comparative area [9]
COc1cc(OC)nc(NC(=O)NS(=O)(=O)c2ncccc2C(F)(F)F)n1 [flazasulfuron] | 50 | 31 | 55 | 30 | 40 | 48 | 54 | 53 | 56 | – | –
[Cu+2].c1ccc2c(c1)-c1nc-2nc2[n-]c(nc3nc(nc4[n-]c(n1)c1ccccc41)-c1ccccc1-3)c1ccccc21 [copper phthalocyanine] | – | – | 40 | – | – | – | – | – | – | reduced | –
Pigment Green 7 | – | – | – | – | – | – | – | – | 50 | – | reduced
